From patent US12133486B2, “Methods of propagation of arbuscular mycorrhizal fungi (AMF) and uses thereof” (Terra Microbes, LLC, priority 2021, dated 2024)

How the values were obtained:
AM fungi = test: Field plot study: AMF spore counts in soil around western wheatgrass roots; format: in vivo; settings: field plots; for Total Spores t = 47 days / Total Spores t = 0 days: mean n = 3, P added at 120 kg/ha (KCl: same K); for Total Spores t = 47 days / spore numbers compared with the control: second sampling; for Total Spores t = 0 days: t = 0 = first sampling, 14 days after treatment; for spore numbers compared with the control: t = 47
Description: (§1) Twelve plots of size 50 cm by 50 cm were established on a homogenous site 2.54 meters (running northeast and southwest) by 4.06 meters (running southeast and northwest). Plant distribution was mostly homogeneous across the entire site, with western wheatgrass dominant. The plots were in four rows with three plots in each row. Within a row plots were 25 cm apart. Rows were 50 cm apart. An experimental unit was one plot. Treatments were replicated three times. Treatments included: controls (no treatment), potassium chloride treatment, potassium phosphate treatment, and potassium phosphite treatment. (See, FIG. 2).
In this study phosphorus, either as phosphate or phosphite, was added at a rate of 120 kg of P per hectare (ha). Scaled down this equates to 3 grams of phosphorous per plot. One ha is 10,000 m^2. Each plot is 50 cm by 50 cm, or 0.25 m^2. The subsequent calculation then is 120 Kg/10,000 m^2=X/0.25 m^2; X=3.00 grams of P per plot. (See Table 2).
(§2) Treatments: All plots received the same amount of solution. The control plots were treated with distilled water only (6.375 L). The KCl plots treated with distilled water containing the same amount of K as was needed to convert the phosphorous acid (H3PO3) to dipotassium phosphite (K2HPO3). The phosphate plots were treated with sufficient dipotassium phosphate (K2HPO4) to deliver 3 g of P per plot dissolved in the same amount of distilled water as the control plots received and the KCl plots received. The phosphite plots were treated with sufficient dipotassium phosphite (K2HPO3) to deliver 3 g of P per plot dissolved in the same amount of distilled water as the control plots received, the KCl plots received and the phosphate plots received.
The field experiment reported in this example was conducted during June through October. Plots were established during early June and treated on the 15th and 16th day (as in Example 3 above). The first soil and root sampling was performed 14 days later (t=14). The second set of samples were taken 47 days later (t=61), and the third set 60 days later (t=121 days). Sample size and depth was as detailed above in Example 3.
AMF spores were evaluated in soil samples from which plant roots including plant roots of western wheatgrass had existed and had been removed. Evaluations were performed on the T=0 and the T=47 samples. These evaluations generally entailed mixing the sample with water, centrifugation, and decanting water. This step was performed to remove light organic matter and other light materials, e.g., leaf fragments. This was followed by mixing the soil with a solution of sodium hexametaphosphate (2%) in 2 M sucrose. Centrifugation results in the spores floating on the sucrose solution or suspended in it. The sucrose solution plus spores is decanted into a separatory funnel. The suspension was allowed to exit the funnel one drop at a time. The spores adhere to the inside of the funnel and once all liquid has exited the funnel the spores are washed into a petri-dish and counted under a dissecting microscope.
The specific protocol for spore extraction was as follows: • A) Weigh 5 g of air dried soil into a 20 ml centrifuge tube. For a complete sample this is replicated four times. • B) Fill each tube with water to ˜1.5 cm of the top. Stir to suspend organic matter and other light debris. Let all tubes stand for 10 minutes. • C) Centrifuge at 2000 rpm (475.2×g) for 10 minutes. Be sure tubes are placed across from each other in the centrifuge and are within 0.1 g of the same weight. • D) Pour off and discard supernatant while stirring surface and rotating tube. • E) If much organic matter and other light material remains, repeat steps B through D. • F) Add sucrose/sodium hexametaphosphate solution (2 molar sucrose containing 2% hexametaphosphate: 684.6 g of sucrose (store grade is adequate) and 20 g of sodium hexametaphosphate in one liter of solution using distilled water) to centrifuge tubes to ˜1.5 cm of top. […]

[1] = system: AMF infections of western wheatgrass (Pascopyron smithii) roots; test: Field plot study: AM fungal infection of western wheatgrass roots; format: in vivo; settings: for AM Infection t = 0 days / AM Infection t = 47 days / AM Infection t = 97 days: western wheatgrass roots, field plots, mean n = 3; for AM Infection t = 0 days: first sampling; for AM Infection t = 97 days: third sampling
Description: as §1, §2
The field experiment reported in this example was conducted during June through October. Plots were established during early June and treated on the 15th and 16th day (as in Example 3 above). […] Sample size and depth was as detailed above in Example 3.
Analyses of infections were performed by examining roots of wheatgrass (Pascopyron smithii). This plant was the dominant plant in all of the plots and is known to be commonly infected with AM fungi. (See, Loree M. A. J. and Williams S. E., New Phytologist, 106:735-744, 1987; and Wang B. and Qui Y.-L. 2006, Ibid.). During sampling of soils using the methodology outlined in Example 3, above, root of target plants were removed and separated by plant species, each sample being labeled and preserved in FAA solution until being further processed.
Staining of the roots was achieved according to published procedures (see, Phillips J. M. and Hayman D. S., Trans. Brit. Mycological Soc., 55:158-160, 1970) except that cotton blue lactophenol was substituted with lactic acid glycerol with trypan blue since lactophenol is toxic. The procedure used for staining was as follows: • A) Remove roots from FAA Solutions. Cut into 1 cm lengths. Place in test tube, push roots to the bottom of the test tube. • B) Cover roots with 10% KOH (10 grams of reagent grade KOH in enough distilled water to 100 ml). Let stand overnight, about 10 hours. • C) Simmer at 90° C. for one hour in a water bath (container with water and test tubes with roots over a heat source). • D) Rinse in tap water. • E) Rinse five minutes in 0.1 N HCl (3.65 […] of HCl in 1000 ml total volume with distilled water). • F) Rinse in tap water. • G) Simmer at 90° C. one hour (in water bath) in Trypan blue Lactic Acid Glycerol (distilled water, 100 ml; lactic acid (reagent grade 85 to 88%) 100 ml; glycerin (reagent grade 85% also listed as glycerol), 200 ml; trypan blue, 0.1 grams (60% dye content). • H) Rinse in tap water. • I) Place in clear lactic acid glycerol (same formulation as above except without the Trypan blue) if destaining is necessary. Samples can be simmered at 90° C. (one hour in water bath) or left at room temperature for at least 72 hours or longer. • J) Mount on standard glass slide (2.5 cm by 7.6 cm) in lactic acid glycerol. Cover slip (2.3 cm by 4.8 cm) used.
An estimate of the degree of infection of western wheatgrass was made by making microscopic scans of each slide such that 40 root segments were evaluated. The evaluation was performed using the 20× objective, e.g., 200× total magnification—eyepieces were 10× multiplied by the objective magnification. […]

| Compound | Total Spores t = 47 days (AM fungi) | Total Spores t = 47 days (AM fungi; listed as phosphite) | Total Spores t = 0 days (AM fungi) | spore numbers compared with the control (AM fungi) | AM Infection t = 0 days [1] | AM Infection t = 47 days ([1]; second sampling) | AM Infection t = 97 days [1] | root infection level compared with control, KCl and phosphite plots ([1]; second sampling, t = 47) |
| --- | --- | --- | --- | --- | --- | --- | --- | --- |
| OP(O)O [PO3, dipotassium phosphite] | 17896Ab Per 100 g soil | 17,896 Per 100 g soil | 6429Aa Per 100 g soil | significant increase in spore numbers from the control | 32Aa Per forty 1.1 mm root segments | 31Aab Per forty 1.1 mm root segments | 39ACc Per forty 1.1 mm root segments | – |
| O=P([O-])([O-])O.[K+].[K+] [PO4, dipotassium phosphate] | 12960Ab Per 100 g soil | – | 4998Aa Per 100 g soil | significant increase in spore numbers from the control | 31Aa Per forty 1.1 mm root segments | 38.7Bbc Per forty 1.1 mm root segments | 38ACc Per forty 1.1 mm root segments | significant increase |
